# Measurements as given in article PMC9623087, “Bioaffinity ultrafiltration coupled with HPLC-ESI-MS/MS for screening potential α-glucosidase inhibitors from pomegranate peel” (Frontiers in Nutrition, 2022).
# Legend:
# α-glucosidase [1] = molecular target: T1, α-glucosidase (Saccharomyces cerevisiae, UniProt P53341); assay: α-glucosidase inhibition assay (pNPG, absorbance at 405 nm); type: biochemical; settings: 0.1 mg/mL and 0.5 mg/mL, Figure 1
# Protocol: Different concentrations (0.01, 0.1, 1, 5, and 10 mg/mL) of Pop extract samples, PBS (pH = 6.8), and α-glucosidase (5 U/mL) were mixed together with equal volumes and co-incubated at 37°C for 15 min. 20 μL pNPG (3 mM) was added to incubate for another 10 min and 150 μL Na2CO3 (0.1 mol/L) was used to stop the reaction. […] Meanwhile, the blank group without samples were simultaneously carried out and the inhibition ratios were calculated ([21], [22]).
# For identified compounds, two concentrations (0.1 mg/mL and 0.5 mg/mL) of each inhibitor were prepared and added to PBS (pH = 6.8) and α-glucosidase (5 U/mL) with equal volumes. After that, 20 μL pNPG (3 mM) was added to initiate the reactions and the changes of absorbance were recorded every 20 s immediately.
# Kunming mice = assay: Sucrose-loading test, postprandial blood glucose; type: in vivo; settings: gavage, 0-120 min
# Protocol: Kunming mice (male, 35–40 g) were gained from Xi’an Jiaotong University (Xi’an, China). […] After gavage, the blood glucose levels were measured at 0, 15, 30, 45, 60, 90, and 120 min by glucose detection kit (Robio Co., Shanghai, China). The whole process conformed to the Guide for the Care and Use of Laboratory Animals, eighth edition (ISBN 10: 0-309-15396-4) ([22]).
# α-glucosidase [2] = molecular target: T1, α-glucosidase; parameters: method as in PMID 20232167; settings: EA isolated and identified from Rosa gallica; cited from earlier work
# α-glucosidase [3] = molecular target: T1, α-glucosidase; assay: Circular dichroism spectra, secondary structure contents of α-glucosidase; settings: EA 2 mg/mL, α-glucosidase 5.0 U/mL
# Protocol: The analysis of CD spectrum was performed according to the previous report with some modifications ([26]). Briefly, both α-glucosidase and EA were dissolved in PBS (pH = 6.8). […] The spectrum scanning range was 200–250 nm, the response time and scanning speed were 1 s and […], respectively.
# α-glucosidase [4] = molecular target: T1, α-glucosidase; assay: Atomic force microscopy of α-glucosidase with EA; settings: EA 40 μg/mL, α-glucosidase 2.0 U/mL, co-incubation 30 min
# α-glucosidase [5] = molecular target: T1, α-glucosidase; assay: Fluorescence quenching of α-glucosidase by EA (Stern–Volmer, binding and thermodynamic analysis)
# Protocol: The fluorescence spectra of α-glucosidase with or without EA were measured at three different temperatures (298, 304, and 310 K) according to the previous study ([21]). Exactly, 2.5 mL α-glucosidase (15 U/mL) was titrated by continuous additions of EA (5 μL each time) to reach a final concentration range from 0 to 19.89 × 10^–6 mol/L. After 5 min of equilibration under different temperatures, the steady fluorescence emission spectra were recorded from 300 to 460 nm with an excitation wavelength of 280 nm. Additionally, the fluorescence of free EA was measured as the background. According to fluorescence spectra data, the quenching constant (Ksv), binding constant (Ka), number of binding sites (n), the binding constant of accessible fluorophores, and the values of free energy change (△G^0), △H^0 and △S^0 were calculated according the previous reports ([21], [22], [25]).
# To further exploit the quenching mechanism, Ksv was calculated by Stern–Volmer equation to determine the quench type, dynamic quenching or static quenching:
# (1) F0/F=1+KSV[Q]=1+Kqτ0[Q]
# where F0 and F are the peak of fluorescence intensities of α-glucosidase […], respectively; Ksv is the dynamic quenching constant; Kq is the quenching rate constant; [Q] is the different concentrations of EA; τ0 is the average lifetime of fluorescence with the value of 10^–8 s.
# For static quenching, the equation as follow was employed to calculate binding constant (Ka) and number of binding sites (n) between EA and α-glucosidase:
# (2) lgF0-F/F=lgKa+nlg[Q]
# Thermodynamic analysis was performed to further determine the binding forces between EA and α-glucosidase, and the relevant thermodynamic parameters, including△G^0,△H^0, and △S^0, were calculated by the two following equations: […]
# α-glucosidase [6] = molecular target: T1, α-glucosidase; assay: Kinetic analysis: Lineweaver–Burk plot and inhibitory reversibility; type: biochemical
# Protocol: Lineweaver–Burk plot was employed to determine the inhibitory type of EA against α-glucosidase ([23]). Briefly, 20 μL α-glucosidase (5 U/mL) was mixed with different concentrations (0, 10, 15, 20, 30 μg/mL) of EA and incubated at 37°C for 15 min. pNPG (1.0, 2.0, 4.0, and 8.0 × 10^–3 mol/L) was added to initiate the reaction and the changes of absorbance were recorded every 60 s immediately. The double-reciprocal plots of reaction velocity (υ) against different concentration of pNPG (1/υ vs. 1/[pNPG]) were analyzed using the Lineweaver–Burk plot to determine inhibition constant (Ki).
# To determine the inhibitory reversibility of EA against α-glucosidase, different concentrations (0, 20, 40, 60, and 100 μg/mL) of EA were reacted with the range of 7.5–1 U/mL α-glucosidase, the absorbance was recorded every 60 s immediately after the pNPG (3 mM) was added ([24]).
# T1 sequence (P53341 whole entry): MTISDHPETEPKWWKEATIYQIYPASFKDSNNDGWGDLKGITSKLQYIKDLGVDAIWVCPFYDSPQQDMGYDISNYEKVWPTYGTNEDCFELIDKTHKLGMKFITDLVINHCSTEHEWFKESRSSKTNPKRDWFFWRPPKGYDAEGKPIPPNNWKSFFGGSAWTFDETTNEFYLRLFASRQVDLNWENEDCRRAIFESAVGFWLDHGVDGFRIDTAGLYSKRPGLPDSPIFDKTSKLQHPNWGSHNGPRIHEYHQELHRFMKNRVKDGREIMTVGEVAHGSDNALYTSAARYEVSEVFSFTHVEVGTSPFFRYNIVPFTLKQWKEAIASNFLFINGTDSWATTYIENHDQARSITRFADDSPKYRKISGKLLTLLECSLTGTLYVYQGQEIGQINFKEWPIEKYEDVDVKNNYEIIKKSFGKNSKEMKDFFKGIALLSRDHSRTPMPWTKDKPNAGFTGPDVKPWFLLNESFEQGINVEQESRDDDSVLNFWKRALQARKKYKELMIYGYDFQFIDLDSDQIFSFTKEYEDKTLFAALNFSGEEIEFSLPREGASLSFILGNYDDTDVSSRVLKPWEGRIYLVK
smiles,measurement,setting,value
"O=C(O)c1cc(O)c(O)c(O)c1 [gallic acid, Gallic acid]",α-glucosidase inhibitory activity of identified compounds (in words),α-glucosidase [1],strong activity
"Oc1ccc(/C=C/c2cc(O)cc(O)c2)cc1 [resveratrol, Resveratrol]",α-glucosidase inhibitory activity of identified compounds (in words),α-glucosidase [1],strong inhibitory activity
"C[C@H]1O[C@H](O[C@H]2[C@H](O)[C@@H](O)[C@@H](O[C@H]3[C@H](O)[C@@H](O)C(O)O[C@@H]3CO)O[C@@H]2CO)[C@H](O)[C@@H](O)[C@@H]1N[C@H]1C=C(CO)[C@@H](O)[C@H](O)[C@H]1O (some centres unmarked) [acarbose, Acarbose, reference compound]",reduction of AUC of blood glucose,Kunming mice; sucrose 2 g/kg + acarbose 50 mg/kg,36.4%
"O=c1c(O)c(-c2ccc(O)cc2)oc2cc(O)cc(O)c12 [kaempferol, Kaempferol]",α-glucosidase inhibitory activity of identified compounds (in words),α-glucosidase [1],strong activity
"O=c1oc2c(O)c(O)cc3c(=O)oc4c(O)c(O)cc1c4c23 [EA, Ellagic acid]",α-glucosidase inhibition (in words),α-glucosidase [2],almost no α-glucosidase inhibition
same,α-glucosidase inhibitory activity of identified compounds (in words),α-glucosidase [1],strongest activity
same,Random coil content of α-glucosidase,α-glucosidase [3]; VEA:Vα–glucosidase 25:200,28.43 ± 0.21%
same,α–helix content of α-glucosidase,α-glucosidase [3]; VEA:Vα–glucosidase 25:200,29.53 ± 0.29%
same,β–sheet content of α-glucosidase,α-glucosidase [3]; VEA:Vα–glucosidase 25:200,23.73 ± 0.21%
same,β–turn content of α-glucosidase,α-glucosidase [3]; VEA:Vα–glucosidase 25:200,18.07 ± 0.21%
same,Random coil content of α-glucosidase,α-glucosidase [3]; VEA:Vα–glucosidase 50:200,30.47 ± 0.33%
same,α–helix content of α-glucosidase,α-glucosidase [3]; VEA:Vα–glucosidase 50:200,28.17 ± 0.21%
same,β–sheet content of α-glucosidase,α-glucosidase [3]; VEA:Vα–glucosidase 50:200,26.60 ± 0.22%
same,β–turn content of α-glucosidase,α-glucosidase [3]; VEA:Vα–glucosidase 50:200,18.57 ± 0.29%
same,Random coil content of α-glucosidase,α-glucosidase [3]; VEA:Vα–glucosidase 100:200,32.87 ± 0.33%
same,α–helix content of α-glucosidase,α-glucosidase [3]; VEA:Vα–glucosidase 100:200,24.83 ± 0.29%
same,β–sheet content of α-glucosidase,α-glucosidase [3]; VEA:Vα–glucosidase 100:200,31.00 ± 0.54%
same,β–turn content of α-glucosidase,α-glucosidase [3]; VEA:Vα–glucosidase 100:200,18.70 ± 0.33%
same,effect on α-glucosidase molecules observed by AFM (in words),α-glucosidase [4],aggregated together and formed irregular polymers
same,fluorescence quenching mechanism,α-glucosidase [5],static quenching mechanism
same,Ksv (quenching constant),α-glucosidase [5]; 298 K,4.75 ± 0.01 ×10^5 L/mol
same,n (number of binding sites),α-glucosidase [5]; 298 K,0.87
same,ΔG^0,α-glucosidase [5]; 298 K,-5.533 ± 0.0072 kcal/mol
same,Ksv (quenching constant),α-glucosidase [5]; 304 K,4.05 ± 0.03 ×10^5 L/mol
same,n (number of binding sites),α-glucosidase [5]; 304 K,0.83
same,ΔG^0,α-glucosidase [5]; 304 K,-5.33 ± 0.014 kcal/mol
same,Ksv (quenching constant),α-glucosidase [5]; 310 K,3.32 ± 0.01 ×10^5 L/mol
same,n (number of binding sites),α-glucosidase [5]; 310 K,0.86
same,ΔG^0,α-glucosidase [5]; 310 K,-5.048 ± 0.012 kcal/mol
same,Kq (quenching rate constant),"α-glucosidase [5]; at each temperature (298, 304, 310 K)",> 2.0 × 10^10 L/mol⋅s
same,ΔH^0,"α-glucosidase [5]; from 298, 304 and 310 K",-17.58 ± 0.086 kcal/mol
same,ΔS^0,"α-glucosidase [5]; from 298, 304 and 310 K",−169.14 ± 0.33 J/mol⋅K
same,reduction of AUC of blood glucose,Kunming mice; sucrose 2 g/kg + EA 25 mg/kg,31.8%
same,inhibitory type,"α-glucosidase [6]; Lineweaver–Burk plot, lines intersect on Y axis",competitive
same,inhibitory reversibility,"α-glucosidase [6]; υ vs. [α-glucosidase], EA 0-100 μg/mL",reversible
